Laboratory results: patent US20050256132A1, “Use of ER selective NF-kB inhibitors for the treatment of sepsis” (priority 2003, published 2005)
Counter-ions that a name gives are not always drawn. Like-named read-outs stand apart in the source and are kept apart here.

What was measured:
ER/IL-6 = assay: Endothelial Cell ER/IL-6 Assay, IL-6 promoter luciferase (Table 2); assay type: cell-based, human; conditions: for Emax: read-out: IL6 luc % Efficacy
Procedure: T-175 flasks of 100% confluent HAECT-1 cells (immortalized human aortic endothelial cells) were washed with 8 ml of HBSS (HEPES buffered saline solution) and infected for fours hours with 6 ml of a 1:10 dilution of Ad5-wt-hERα virus (an adenovirus transfection vector that mediates CMV promoter driven expression of human ERα) in phenol red free Endothelial Cell Basal medium (Clonetics, San Diego, Calif., Catalog # CC-3129) containing 0.25% bovine serum albumin (EDM-BSA). After four hours, cells were washed with EDM-BSA and incubated overnight in the same medium. Following overnight incubation, cells were washed with EDM-BSA and infected for 2 hours with 6 ml of a 1:10 dilution of Ad5-3x(NFκB).Luc virus (Adenovirus luciferase expression vector driven by three repeats of the MHC NFκb sites 5′ to the thymidine kinase promoter) in EDM-BSA. After two hours, cells were washed and incubated at 34° C. for one hour. Cells were then washed, trypsinized, counted, and resuspended in 95% FBS/5% dimethylsulfoxide at a concentration of […], frozen as 1 or 5 ml aliquots in cryo-vials and stored at −150° C. Control (no ER infection) cells were processed as above without Ad5-wt-hERα virus infection.
ERα infected HAECT-1 cells or control cells were thawed, diluted 42× in warm EBM-BSA, plated into 96-well plates at 0.1 ml/well and incubated for 4 hours at 34° C. Test compounds were added to the cells at 2× stocks in EBM-BSA containing 2 ng/ml IL-1β Ad6-IL-6(1250 bp).Luc virus and plates were returned to the incubator (34° C.). After […], cells were lysed with 50 μl of Promega Cell Culture Lysis reagenet for about 5 minutes at room temperature on a shaker. After lysing, 15 μl of lysate is transferred to luminometer plates for luciferase determination. Luciferase activity is evaluated using a Perkin Elmer Victor2 1420 multilabel counter. Creatine kinase was determined from the rate of increase in A340 following addition of 100 μl of CK assay reagent (Sigma catalog no. 47-10) to the remainder of the cell lysate.
For IC50 and EC50 calculations, mean IL-6, luciferase or CK values versus log10 of the compound concentration were fitted to a four parameter logistic equation. The IC50/EC50 value, ‘Hill slope,’ upper and lower limits of the curve were iteratively estimated.

[1] = Homo sapiens, HAECT1, ERα infected HAECT-1 cells, IL-1β
[2] = Homo sapiens, HAECT1, ERα infected HAECT-1 cells, IL-1β, read-out: IL6 luc IC50

Q: Which melting point does the source give for `COc1ccccc1[C@H](c1cccc2ccccc12)[C@@](C)(C#N)C(=O)N1CCN(CCCN(C)C)CC1` [Example 202, (2S)-3-{4-[3-(dimethylamino)propyl]piperazin-1-yl}-2-[(S)-(2-methoxyphenyl)(1-naphthyl)methyl]-2-methyl-3-oxopropanenitrile] here?
A: 78 to 80 °C

Q: And the Emax (ER/IL-6; [1])?
A: 43%

Q: Which results are given for `COC[C@@](C#N)(C(=O)N1CCN(c2ncccn2)CC1)[C@@H](c1ccccc1OC)c1cccc2ccccc12` [Example 211, (2R,3R)-2-(methoxymethyl)-3-(2-methoxyphenyl)-3-(1-naphthyl)-2-[(4-pyrimidin-2-ylpiperazin-1-yl)carbonyl]propanenitrile]?
A: melting point: 136 to 137 °C; Emax (ER/IL-6; [1]): 78%; IC50 (ER/IL-6; [2]): 268 nM

Q: What does the source list for `COc1ccccc1[C@H](c1cccc2ccccc12)[C@@](C)(C#N)C(=O)N1CCC(C2CCCC(C(F)(F)F)C2)CC1` (stereo partly drawn) [Example 139, (2S,3S)-3-(2-methoxyphenyl)-2-methyl-3-(1-naphthyl)-2-({4-[3-(trifluoromethyl)cyclohexyl]piperidin-1-yl}carbonyl)propanenitrile]?
A: melting point: 160 to 165 °C; Emax (ER/IL-6; [1]): 98%; IC50 (ER/IL-6; [2]): 113 nM

Q: With `COc1ccccc1[C@H](c1cccc2ccccc12)[C@@](C)(C#N)C(=O)N1CC=C(c2c[nH]c3ccccc23)CC1` [Example 182, (2S)-3-[4-(1H-indol-3-yl)-3,6-dihydropyridin-1(2H)-yl]-2-[(s)-(2-methoxyphenyl)(1-naphthyl)methyl]-2-methyl-3-oxopropanenitrile] as the compound, how does the melting point read?
A: 229 to 231 °C

Q: What about the Emax (ER/IL-6; [1]) of the same compound?
A: 74%

Q: What about the IC50 (ER/IL-6; [2]) of the same compound?
A: 45 nM

Q: With `COc1ccccc1[C@H](c1cccc2ccccc12)[C@@](C)(C#N)C(=O)N1CCN(c2cccc(Cl)c2)CC1` as the compound, how does the melting point read?
A: 174 to 176 °C

Q: With `COc1ccccc1[C@H](c1cccc2ccccc12)[C@@](C)(C#N)C(=O)N1CCN(c2ccccc2F)CC1` as the compound, how does the melting point read?
A: 145 to 148 °C

Q: With `COc1ccccc1[C@H](c1cccc2ccccc12)[C@@](C)(C#N)C(=O)N1CCN(C2CCCCC2)CC1` [Example 196, (2S)-3-(4-cyclohexylpiperazin-1-yl)-2-[(s)-(2-methoxyphenyl)(1-naphthyl)methyl]-2-methyl-3-oxopropanenitrile] as the compound, how does the melting point read?
A: 137 to 138 °C

Q: What about the Emax (ER/IL-6; [1]) of the same compound?
A: 142%

Q: And the IC50 (ER/IL-6; [2])?
A: 70 nM

Q: For `COc1ccccc1[C@H](c1cccc2ccccc12)[C@@](C)(C#N)C(=O)N1CCc2c([nH]c3ccccc23)C1` [Example 190, (2S,3S)-3-(2-methoxyphenyl)-2-methyl-3-(1-naphthyl)-2-(1,3,4,9-tetrahydro-2H-beta-carbolin-2-ylcarbonyl)propanenitrile], which melting point is on record?
A: 212 to 213 °C

Q: What about the IC50 (ER/IL-6; [2]) of the same compound?
A: 113 nM

Q: What does the source list for `COc1ccccc1[C@H](c1cccc2ccccc12)[C@@](C)(C#N)C(=O)N1CCC(=O)CC1` [Example 191, (2S,3S)-3-(2-methoxyphenyl)-2-methyl-3-(1-naphthyl)-2-[(4-oxopiperidin-1-yl)carbonyl]propanenitrile]?
A: melting point: 209 to 210 °C; IC50 (ER/IL-6; Homo sapiens, HAECT1, read-out: IL6 luc IC50): 586 nM

Q: For `COc1ccccc1[C@H](c1cccc2ccccc12)[C@@](C)(C#N)C(=O)N1CC=C(c2ccc(Cl)cc2)CC1`, which melting point is on record?
A: 118 to 122 °C

Q: For `COc1ccccc1[C@H](c1cccc2ccccc12)[C@@](C)(C#N)C(=O)N1CCN(C(=O)c2ccco2)CC1`, which melting point is on record?
A: 193 °C

Q: Which melting point does the source give for `COc1cccc(N2CCN(C(=O)[C@](C)(C#N)[C@H](c3ccccc3OC)c3cccc4ccccc34)CC2)c1` here?
A: 147 to 148 °C

Q: For `CCN(CC)CC[C@](C#N)(C(=O)OC)[C@H](c1ccccc1OC)c1cccc2ccccc12` (relative stereo) (as salt: HCl) [Example 148, Methyl (2S*)-2-cyano-4-(diethylamino)-2-[(S*)-(2-methoxyphenyl)(1-naphthyl)methyl]butanoate], which melting point is on record?
A: 174 °C (dec.)

Q: With `COc1ccccc1[C@H](c1cccc2ccccc12)[C@@](C)(C#N)C(=O)N1CCN(CC(=O)N2CCOCC2)CC1` as the compound, how does the melting point read?
A: 201 °C

Q: With `CCOC(=O)C(C)(C#N)C(c1cccc2ccccc12)c1cccc2ccccc12` (centres unmarked) as the compound, how does the melting point read?
A: 186 to 188 °C

Q: With `COc1ccccc1[C@H](c1cccc2ccccc12)[C@@](C)(C#N)C(=O)N1CCN(c2ccccc2Cl)CC1` as the compound, how does the melting point read?
A: 145 to 147 °C

Q: With `COc1ccccc1[C@H](c1cccc2ccccc12)[C@@](C)(C#N)C(=O)N1CCN(c2ccc(Cl)cc2)CC1` as the compound, how does the melting point read?
A: 178 to 180 °C

Q: With `COc1ccccc1[C@H](c1cccc2ccccc12)[C@@](C)(C#N)C(=O)N1CCC(O)(c2ccc(Br)cc2)CC1` as the compound, how does the melting point read?
A: 206 to 208 °C

Q: With `CC(C)(C)OC(=O)C(C#N)C(c1cccc2ccccc12)c1cccc2ccccc12` (centres unmarked) as the compound, how does the melting point read?
A: 156 to 157 °C

Q: For `Cc1cccc(C)c1C(c1cccc2ccccc12)C(C#N)C(=O)OC(C)(C)C` (centres unmarked), which melting point is on record?
A: 124 to 128 °C

Q: Which melting point does the source give for `CC(C)(C)OC(=O)[C@@](C)(C#N)[C@H](c1ccccc1OC(F)(F)F)c1cccc2ccccc12` (racemic) here?
A: 150 to 153 °C

Q: For `CC(C)(C)OC(=O)C(C#N)C(c1ccccc1OC(F)(F)F)c1cccc2ccccc12` (centres unmarked), which melting point is on record?
A: 115 to 118 °C

Q: With `COc1cc(OC)cc(N2CCN(C(=O)[C@](C)(C#N)[C@H](c3ccccc3OC)c3cccc4ccccc34)CC2)c1` as the compound, how does the melting point read?
A: 186 to 188 °C

Q: For `COc1ccccc1[C@H](c1cccc2ccccc12)[C@@](C)(C#N)C(=O)N1CCN(c2cccc3[nH]ccc23)CC1`, which melting point is on record?
A: 174 to 176 °C

Q: For `COc1ccccc1[C@H](c1cccc2ccccc12)[C@@](C)(C#N)C(=O)N1CCN(c2cccc(C)c2C)CC1`, which melting point is on record?
A: 194 to 195 °C

Q: For `COc1ccccc1[C@H](c1cccc2ccccc12)[C@@](C)(C#N)C(=O)N1CCN(c2cccc(C)c2)CC1`, which melting point is on record?
A: 104 to 105 °C

Q: For `COC[C@](C#N)(C(=O)OC)[C@H](c1ccccc1OC)c1cccc2ccccc12` [Example 150, Methyl (2S,3S)-2-cyano-2-(methoxymethyl)-3-(2-methoxyphenyl)-3-(1-naphthyl)propanoate], which melting point is on record?
A: 176 to 178 °C

Q: With `COc1ccccc1[C@H](c1cccc2ccccc12)[C@@](C)(C#N)C(=O)N1CC=C(c2ccc(F)cc2)CC1` [Example 137, (2S)-3-[4-(4-fluorophenyl)-3,6-dihydropyridin-1(2H)-yl]-2-[(S)-(2-methoxyphenyl)(1-naphthyl)methyl]-2-methyl-3-oxopropanenitrile] as the compound, how does the Emax (ER/IL-6; [1]) read?
A: 163%

Q: What about the IC50 (ER/IL-6; [2]) of the same compound?
A: 33 nM

Q: Which melting point does the source give for `COc1ccccc1[C@H](c1cccc2ccccc12)[C@@](C)(C#N)C(=O)N1CCN(CCN2CCOCC2)CC1` here?
A: 102 to 103 °C

Q: For `COc1ccccc1[C@H](c1cccc2ccccc12)[C@@](C)(C#N)C(=O)N1CCN(c2cccc3c2CCC3)CC1`, which melting point is on record?
A: 188 to 190 °C

Q: With `CCN(CC)CC[C@](C#N)(C(=O)OC)[C@H](c1ccccc1OC)c1cccc2ccccc12` (relative stereo) [Example 148, Methyl (2S*)-2-cyano-4-(diethylamino)-2-[(S*)-(2-methoxyphenyl)(1-naphthyl)methyl]butanoate] as the compound, how does the IC50 (ER/IL-6; [2]) read?
A: 257 nM

Q: Which melting point does the source give for `C[C@@](C#N)(C(=O)O)[C@H](c1ccccc1C(F)(F)F)c1cccc2ccccc12` (racemic) here?
A: 220 °C (dec.)

Q: Which results are given for `COCCOC[C@@](C#N)(C(=O)NCC(C)(C)C)[C@@H](c1ccccc1OC)c1cccc2ccccc12` [Example 170, (RR,SS)-2-Cyano-N-(2,2-dimethylpropyl)-2-[(2-methoxyethoxy)methyl]-3-(2-methoxyphenyl)-3-(1-naphthyl)propanamide]?
A: IL6 luc % Efficacy (ER/IL-6; ERα infected HAECT-1 cells, IL-1β): 89%; IC50 (ER/IL-6; ERα infected HAECT-1 cells, IL-1β, read-out: IL6 luc IC50): 577 nM

Q: Which melting point does the source give for `COc1ccccc1[C@H](c1cccc2ccccc12)[C@@](C)(C#N)C(=O)N1CCN(c2ccc(C)c(C)c2)CC1` here?
A: 181 to 183 °C
